{"source": "patent US9517989B2", "about": "“2-cycloalkyl resorcinol cannabinergic ligands” (priority 2012, dated 2016)", "key": {"CB2 receptor": {"target": "CB2 receptor (UniProt P47936)", "experiment": "CB2 receptor binding affinity (Ki)", "conditions": "read-out: CB2 receptor Ki", "method": "Some disclosed compounds were tested for CB1 and CB2 receptor binding affinity (Tables 1, 2, 3, 4, 5, 6). As used herein “binding affinity” is represented by the Ki value. The Ki value is the affinity constant and describes the affinity of the compound for the receptor. The lower the Ki value, the higher the affinity of the compound for the receptor. A detailed description of the methods used to test “binding affinity” of compounds is given in Makriyannis, et al., US 2007, 0135388 and in Papahatjis, et al. J. Med. Chem. (2007) 4048, the content of each of which is hereby incorporated by reference."}, "CB1": {"target": "CB1 (Rattus norvegicus, UniProt P20272)", "sequence (P20272 whole entry)": "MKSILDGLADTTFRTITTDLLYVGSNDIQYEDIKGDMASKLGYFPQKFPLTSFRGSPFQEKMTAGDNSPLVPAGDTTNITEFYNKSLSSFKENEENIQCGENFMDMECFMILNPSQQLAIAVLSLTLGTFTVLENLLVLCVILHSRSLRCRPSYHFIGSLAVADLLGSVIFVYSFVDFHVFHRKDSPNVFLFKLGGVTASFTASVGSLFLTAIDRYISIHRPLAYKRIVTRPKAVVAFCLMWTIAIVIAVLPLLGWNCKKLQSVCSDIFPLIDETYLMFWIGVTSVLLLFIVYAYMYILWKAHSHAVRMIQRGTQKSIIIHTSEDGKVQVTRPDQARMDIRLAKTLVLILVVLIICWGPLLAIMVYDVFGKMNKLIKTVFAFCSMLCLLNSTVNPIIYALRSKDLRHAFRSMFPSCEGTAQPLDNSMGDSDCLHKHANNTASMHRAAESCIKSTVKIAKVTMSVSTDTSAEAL", "experiment": "CB1 receptor binding affinity (Ki)", "method": "Some disclosed compounds were tested for CB1 and CB2 receptor binding affinity (Tables 1, 2, 3, 4, 5, 6). As used herein “binding affinity” is represented by the Ki value. The Ki value is the affinity constant and describes the affinity of the compound for the receptor. […] A detailed description of the methods used to test “binding affinity” of compounds is given in Makriyannis, et al., US 2007, 0135388 and in Papahatjis, et al. J. Med. Chem. (2007) 4048, the content of each of which is hereby incorporated by reference."}}, "note": "Where two headings read alike, the source gives them in different places."}
{"molecule": "C=C(C)[C@H]1CCC(COC(C)=O)=C[C@@H]1c1c(O)cc(C2(CCCCCBr)CCCC2)cc1O", "note": "[Compound 3.7, 2-[(1S,6S)-3-(Acetoxymethyl)-6-(1-methylethenyl)-2-cyclohexen-1-yl]-5-[(5-bromopentyl)cyclopentyl)resorcinol]", "values": [{"measurement": "Ki", "setting": "CB2 receptor", "result": 0.025, "unit": "µM"}, {"measurement": "Ki", "setting": "CB1", "result": 0.051, "unit": "µM"}]}
{"molecule": "C=C(C)[C@H]1CCC(COC(C)=O)=C[C@@H]1c1c(O)cc(C(C)(C)CCCBr)cc1O", "note": "[Compound 3.10, 2-[(1S,6S)-3-(Acetoxymethyl)-6-(1-methylethenyl)-2-cyclohexen-1-yl]-5-(5-bromo-2-methypentan-2-yl)resorcinol]", "values": [{"measurement": "Ki", "setting": "CB2 receptor", "result": 0.014, "unit": "µM"}, {"measurement": "Ki", "setting": "CB1", "result": 0.62, "unit": "µM"}]}
{"molecule": "2-[(1S,6S)-3-(Hydroxymethyl)-6-(1-methylethenyl)-2-cyclohexen-1-yl]-5-[1-(1,2-cis-hexen-1-yl)-cyclopent-1-yl]resorcinol [Compound 4.5]", "values": [{"measurement": "Ki", "setting": "CB2 receptor", "result": 0.0027, "unit": "µM"}, {"measurement": "Ki", "setting": "CB1; read-out: CB1 receptor Ki", "result": 0.029, "unit": "µM"}]}
{"molecule": "C=C(C)[C@H]1CCC(COC(C)=O)=C[C@@H]1c1c(O)cc(C2(/C=C\\CCCC)CCOCC2)cc1O", "note": "[Compound 3.14, 2-[(1S,6S)-3-(Acetoxymethyl)-6-(1-methylethenyl)-2-cyclohexen-1-yl]-5-[1-(1,2-cis-hexen-1-yl)-tetrahydro-2H-pyran-4-yl]resorcinol]", "values": [{"measurement": "Ki", "setting": "CB2 receptor", "result": 0.038, "unit": "µM"}, {"measurement": "Ki", "setting": "CB1", "result": 0.376, "unit": "µM"}]}
{"molecule": "CC(C)[C@H]1CC[C@@H](CO)C[C@H]1c1c(O)cc(C23CC4CC(CC(C4)C2)C3)cc1O", "note": "[Compound 56, (1R,3R,4R)-3-[4-(1-Adamantyl)-2,6-dihydroxyphenyl]-4-isopropyl-1-(hydroxymethyl)cyclohexane]", "values": [{"measurement": "Ki", "setting": "CB2 receptor", "result": 0.023, "unit": "µM"}, {"measurement": "Ki", "setting": "CB1", "result": 0.998, "unit": "µM"}]}
{"molecule": "C=C(C)[C@@H]1CCC(COC(C)=O)=C[C@H]1c1c(O)cc(C(C)(C)CCCCCCBr)cc1O", "note": "[Compound 31.13, 2-[(1R,6R)-3-(Acetoxymethyl)-6-(1-methylethenyl)-2-cyclohexen-1-yl]-5-(8-bromo-2-methyloct-2-yl)resorcinol]", "values": [{"measurement": "Ki", "setting": "CB2 receptor", "result": 0.171, "unit": "µM"}, {"measurement": "Ki", "setting": "CB1", "result": 0.205, "unit": "µM"}]}
{"molecule": "CC1=C[C@H](c2c(O)cc(C3(CCCCCBr)CCCC3)cc2O)[C@@H]2C[C@H]1C2(C)C", "note": "[Compound 40.7, (+)-2-[(1R,4S,5S)-2,6,6-trimethylbicylco[3.1.1]hept-2-en-4-yl]-5-[(5-bromopentyl)cyclopentyl]resorcinol]", "values": [{"measurement": "Ki", "setting": "CB2 receptor", "result": 0.0047, "unit": "µM"}, {"measurement": "Ki", "setting": "CB1", "result": 0.0064, "unit": "µM"}]}
{"molecule": "C=C(C)[C@H]1CCC(CO)=C[C@@H]1c1c(O)cc(C2(CCCCCBr)CCCC2)cc1O", "note": "[Compound 4.7, 2-[(1S,6S)-3-(Hydroxymethyl)-6-(1-methylethenyl)-2-cyclohexen-1-yl]-5-[(5-bromopentyl)cyclopentyl)resorcinol]", "values": [{"measurement": "Ki", "setting": "CB2 receptor", "result": 0.005, "unit": "µM"}, {"measurement": "Ki", "setting": "CB1", "result": 0.016, "unit": "µM"}]}
{"molecule": "C=C(C)C1CCC(O)CC1c1c(O)cc(C(C)(C)CCCCCC)cc1O", "note": "[Compound 68, (1R,3R,4R)-3-[4-(1′,1′-Dimethylheptyl)-2,6-dihydroxyphenyl]-4-isopropenyl-1-hydroxycyclohexane]", "values": [{"measurement": "Ki", "setting": "CB2 receptor", "result": 0.033, "unit": "µM"}, {"measurement": "Ki", "setting": "CB1", "result": "> 1", "unit": "µM"}]}
{"molecule": "C=C(C)[C@H]1CCC(COC(C)=O)=C[C@@H]1c1c(O)cc(C(C)(C)CCCCBr)cc1O", "note": "[Compound 3.11, 2-[(1S,6S)-3-(Acetoxymethyl)-6-(1-methylethenyl)-2-cyclohexen-1-yl]-5-(6-bromo-2-methylhexan-2-yl)resorcinol]", "values": [{"measurement": "Ki", "setting": "CB2 receptor", "result": 0.037, "unit": "µM"}, {"measurement": "Ki", "setting": "CB1", "result": 0.191, "unit": "µM"}]}
{"molecule": "C=C(C)[C@H]1CCC(COC(C)=O)=C[C@@H]1c1c(O)cc(C2(CCCCCC)CCCC2)cc1O", "note": "[Compound 3.4, 2-[(1S,6S)-3-(Acetoxymethyl)-6-(1-methylethenyl)-2-cyclohexen-1-yl]-5-(1-hexyl-1-cyclopentyl)resorcinol]", "values": [{"measurement": "Ki", "setting": "CB2 receptor", "result": 0.065, "unit": "µM"}, {"measurement": "Ki", "setting": "CB1", "result": 0.277, "unit": "µM"}]}
{"molecule": "C=C(C)[C@@H]1CCC(C)=C[C@H]1c1c(O)cc(CCCCC)cc1O", "note": "[(−)-CBD, Cannabidiol, reference compound]", "values": [{"measurement": "Ki", "setting": "CB2 receptor", "result": "> 0.2", "unit": "µM"}]}
{"molecule": "C=C(C)[C@@H]1CC[C@@H](N2CCOCC2)C[C@H]1c1c(O)cc(C(C)(C)CCCCCC)cc1O", "note": "[Compound 62, (1R,3R,4R)-3-[4-(1′,1′-Dimethylheptyl)-2,6-dihydroxyphenyl]-4-isopropenyl-1-morpholinylcyclohexane]", "values": [{"measurement": "Ki", "setting": "CB2 receptor", "result": 0.014, "unit": "µM"}, {"measurement": "Ki", "setting": "CB1", "result": 0.069, "unit": "µM"}]}
{"molecule": "C=C(C)[C@H]1CCC(C)=C[C@@H]1c1c(O)cc(CCCCC)cc1O", "note": "[(+)-CBD, Cannabidiol, reference compound]", "values": [{"measurement": "Ki", "setting": "CB2 receptor", "result": "> 0.2", "unit": "µM"}]}
